PubChem BioAssay AID1918995 (Molecular Pharmacology Branch, DTP, NCI, 2023)
Blank lines part the entries; values can stand above or below the compound they belong to.

System: 324938-238-R-J1-PDC complex spheroid growth, % test/control
Assay: Anticancer human tumor 324938-238-R-J1-PDC patient-derived bladder carcinoma cell line growth inhibition [AhR]
Conditions: for IC50: curve of first compound; for viability, T/C: stronger effect = lower value
Excerpt: Multicellular complex tumor spheroid response to aryl hydrocarbon receptor antagonists in combination with a variety of drugs and investigational agents in selected tumor cell lines
The current study was undertaken to assess response to aryl hydrocarbon receptor antagonists in combination with standard-of-care drugs and investigational agents in solid tumor complex spheroid models. Complex spheroids include a stromal component modeled by human endothelial cells (HUVEC) and fibroblasts modeled by human mesenchymal stem cells (MSCs). The concentration ranges selected for each drug and investigational agent were based upon clinically achievable concentrations if the clinical Cmax of the agent was known.
Compounds. The drugs and investigational agents: BAY 2416964 (NSC825713), GNF351 (NSC835774), CH-223191 (NSC835775), CPI-455 (NSC825282), aza-TdCyd (NSC777586), decitabine (NSC127716), belinostat (NSC758774), entinostat (NSC756642), pevonedistat (NSC761192), tazemetostat (NSC777109), talazoparib (NSC765396), olaparib (NSC753686), selinexor (NSC780203), nedisertib (M3814, NSC802822), bortezomib (NSC756655), venetoclax (NSC766270), doxorubicin (NSC123127), elimusertib (BAY189344, NSC800525), ceralasertib (AZD6738, NSC777638), TAK-243 (NSC785004), alisertib (NSC759677), etoposide (NSC141540), topotecan (NSC609699), eribulin (NSC707389), gemcitabine (NSC613327), carboplatin (NSC241240), cisplatin (NSC119875), and SN-38 (NSC673596) were obtained from the National Cancer Institute (NCI) Developmental Therapeutics Program Chemical Repository (32). The FDA-approved anticancer drug set is available from the Developmental Therapeutics Program at https://dtp.cancer.gov/organization/dscb/obtaining/available plates.htm. […] The stock solutions were prepared in dimethyl sulfoxide (DMSO, Sigma-Aldrich, St. Louis, MO, cat. D2650), except for the platinum compounds which were prepared in saline (Quality Biological, Gaithersburg, MD, cat. 114-055-101), at 800-fold the tested concentration and stored at -70 degrees C prior to their use. All drugs and investigational agents were tested over a range starting from a high concentration at or near the clinical Cmax and decreasing in half-log increments. If the clinical Cmax for an agent had not been determined, the highest concentration tested was 10 microM (Table 1).
Cell Culture. All cells were maintained in an incubator at 37 degrees C and 5% CO2 with 95% humidity. The PDC lines were cultured according to standard operating procedures established by the NCI PDMR (https://pdmr.cancer.gov). Briefly, all PDCs were thawed and cultured in Matrigel-coated flasks prepared with a working solution of 1X Ham's F-12 nutrient mix, without supplementation (Invitrogen, Waltham, MA, cat. 11765054), 100 U/mL penicillin-streptomycin (Invitrogen, cat. 15140122), and 2.5% Matrigel (Corning Inc., Corning, NY, cat. 354248) for the first three passages. All PDCs were cultured in complete DMEM/F-12 media containing advanced DMEM/F-12 (Invitrogen, cat. 12634028), 4.9% defined fetal bovine serum, heat inactivated (HyClone Laboratories Inc., Logan, UT, cat. SH30070.03HI), 389 ng/mL hydrocortisone (Sigma-Aldrich, cat. H4001), 9.7 ng/mL human EGF recombinant protein (Invitrogen, cat. PHG0313), 23.4 microg/mL adenine (Sigma-Aldrich, cat. A2786), 97.3 U/mL penicillin-streptomycin (Invitrogen, cat. 15140122), 1.9 mM L-glutamine (Invitrogen, cat. 25030081), and 9.7 microM Y-27632 dihydrochloride (Tocris Bioscience, Bristol, United Kingdom, cat. 1254). The PDCs were cultured in complete DMEM/F12 media without 10 microM Y-27632 dihydrochloride for at least two passages prior to the screen. The established cell lines NCI-H1341 and […] were cultured in DMEM/F-12, HEPES (Invitrogen, cat. 11330032), 5% defined fetal bovine serum (HyClone Laboratories Inc., cat. SH30070.03), ITS premix universal culture supplement [insulin (5 microg/mL), transferrin (5 microg/mL), and selenious acid (5 ng/mL)] […]

[1] = second compound 0.1 µM, first compound 0.00949 µM
[2] = second compound 0.1 µM, first compound 0.03 µM
[3] = second compound 0.1 µM, first compound 0.0949 µM
[4] = second compound 0.1 µM, first compound 0.3 µM
[5] = second compound 0.316 µM, first compound 0.00949 µM
[6] = second compound 0.316 µM, first compound 0.03 µM
[7] = second compound 0.316 µM, first compound 0.0949 µM
[8] = second compound 0.316 µM, first compound 0.3 µM
[9] = second compound 1 µM, first compound 0.00949 µM
[10] = second compound 1 µM, first compound 0.03 µM
[11] = second compound 1 µM, first compound 0.0949 µM
[12] = second compound 1 µM, first compound 0.3 µM
[13] = second compound 3.16 µM, first compound 0.00949 µM
[14] = second compound 3.16 µM, first compound 0.03 µM
[15] = second compound 3.16 µM, first compound 0.0949 µM
[16] = second compound 3.16 µM, first compound 0.3 µM
[17] = second compound 10 µM, first compound 0.00949 µM
[18] = second compound 10 µM, first compound 0.03 µM
[19] = second compound 10 µM, first compound 0.0949 µM
[20] = second compound 10 µM, first compound 0.3 µM
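Also: spheroids exposed to agents for seven days before viability read.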

IC50 (second compound 0.1 µM): > 10000 nM | IC50 (second compound 0.316 µM): > 10000 nM | IC50 (second compound 1 µM): > 10000 nM | IC50 (second compound 3.16 µM): > 10000 nM | IC50 (second compound 10 µM): < 31.6 nM
SMILES: O=C(c1cc(Cc2n[nH]c(=O)c3ccccc23)ccc1F)N1CCN(C(=O)C2CC2)CC1 + Cc1cncc(-c2nc(NCCc3c[nH]c4ccccc34)c3ncn(C(C)C)c3n2)c1
viability, T/C (second compound 0.1 µM, first compound 0.0316 µM): 106% | viability, T/C (second compound 0.1 µM, first compound 0.1 µM): 96.6% | viability, T/C (second compound 0.1 µM, first compound 0.316 µM): 78.3% | viability, T/C (second compound 0.1 µM, first compound 1 µM): 71.6% | viability, T/C (second compound 0.1 µM, first compound 3.16 µM): 72.5% | viability, T/C (second compound 0.1 µM, first compound 10 µM): 79.5% | viability, T/C (second compound 0.316 µM, first compound 0.0316 µM): 97.2% | viability, T/C (second compound 0.316 µM, first compound 0.1 µM): 115% | viability, T/C (second compound 0.316 µM, first compound 0.316 µM): 105% | viability, T/C (second compound 0.316 µM, first compound 1 µM): 97.2% | viability, T/C (second compound 0.316 µM, first compound 3.16 µM): 92.3% | viability, T/C (second compound 0.316 µM, first compound 10 µM): 74.4% | viability, T/C (second compound 1 µM, first compound 0.0316 µM): 78.4% | viability, T/C (second compound 1 µM, first compound 0.1 µM): 106% | viability, T/C (second compound 1 µM, first compound 0.316 µM): 91% | viability, T/C (second compound 1 µM, first compound 1 µM): 61.5% | viability, T/C (second compound 1 µM, first compound 3.16 µM): 72% | viability, T/C (second compound 1 µM, first compound 10 µM): 59.6% | viability, T/C (second compound 3.16 µM, first compound 0.0316 µM): 78.4% | viability, T/C (second compound 3.16 µM, first compound 0.1 µM): 66.2% | viability, T/C (second compound 3.16 µM, first compound 0.316 µM): 84.3% | viability, T/C (second compound 3.16 µM, first compound 1 µM): 68.2% | viability, T/C (second compound 3.16 µM, first compound 3.16 µM): 77.7% | viability, T/C (second compound 3.16 µM, first compound 10 µM): 67.6% | viability, T/C (second compound 10 µM, first compound 0.0316 µM): 5.77% | viability, T/C (second compound 10 µM, first compound 0.1 µM): 4.45% | viability, T/C (second compound 10 µM, first compound 0.316 µM): 2.26% | viability, T/C (second compound 10 µM, first compound 1 µM): 4.78% | viability, T/C (second compound 10 µM, first compound 3.16 µM): 4.97% | viability, T/C (second compound 10 µM, first compound 10 µM): 8.77%

IC50 (second compound 0.1 µM): 4.75 nM | IC50 (second compound 0.316 µM): 4.16 nM | IC50 (second compound 1 µM): 4.21 nM | IC50 (second compound 3.16 µM): 4.41 nM | IC50 (second compound 10 µM): < 0.949 nM
SMILES: CC(C)CC(NC(=O)C(Cc1ccccc1)NC(=O)c1cnccn1)B(O)O (stereo not given) + Cc1cncc(-c2nc(NCCc3c[nH]c4ccccc34)c3ncn(C(C)C)c3n2)c1
viability, T/C (second compound 0.1 µM, first compound 0.000949 µM): 140% | viability, T/C (second compound 0.1 µM, first compound 0.003 µM): 82.9% | viability, T/C [1]: 0.38% | viability, T/C [2]: 0.6% | viability, T/C [3]: 0.37% | viability, T/C [4]: 0.39% | viability, T/C (second compound 0.316 µM, first compound 0.000949 µM): 123% | viability, T/C (second compound 0.316 µM, first compound 0.003 µM): 69.4% | viability, T/C [5]: 0.83% | viability, T/C [6]: 2.26% | viability, T/C [7]: 1.05% | viability, T/C [8]: 0.73% | viability, T/C (second compound 1 µM, first compound 0.000949 µM): 107% | viability, T/C (second compound 1 µM, first compound 0.003 µM): 70.6% | viability, T/C [9]: 0.67% | viability, T/C [10]: 0.27% | viability, T/C [11]: 0.57% | viability, T/C [12]: 0.35% | viability, T/C (second compound 3.16 µM, first compound 0.000949 µM): 109% | viability, T/C (second compound 3.16 µM, first compound 0.003 µM): 74.3% | viability, T/C [13]: 1.45% | viability, T/C [14]: 0.48% | viability, T/C [15]: 0.28% | viability, T/C [16]: 0.4% | viability, T/C (second compound 10 µM, first compound 0.000949 µM): 5.75% | viability, T/C (second compound 10 µM, first compound 0.003 µM): 2.91% | viability, T/C [17]: 1.36% | viability, T/C [18]: 0.48% | viability, T/C [19]: 0.49% | viability, T/C [20]: 0.42%

IC50 (second compound 0.1 µM): > 3000 nM | IC50 (second compound 0.316 µM): > 3000 nM | IC50 (second compound 1 µM): > 3000 nM | IC50 (second compound 3.16 µM): > 3000 nM | IC50 (second compound 10 µM): < 9.49 nM
SMILES: CCN(c1cc(-c2ccc(CN3CCOCC3)cc2)cc(C(=O)NCc2c(C)cc(C)[nH]c2=O)c1C)C1CCOCC1 + Cc1cncc(-c2nc(NCCc3c[nH]c4ccccc34)c3ncn(C(C)C)c3n2)c1
viability, T/C [1]: 106% | viability, T/C [2]: 135% | viability, T/C [3]: 123% | viability, T/C [4]: 104% | viability, T/C (second compound 0.1 µM, first compound 0.949 µM): 106% | viability, T/C (second compound 0.1 µM, first compound 3 µM): 156% | viability, T/C [5]: 94.5% | viability, T/C [6]: 89.3% | viability, T/C [7]: 112% | viability, T/C [8]: 105% | viability, T/C (second compound 0.316 µM, first compound 0.949 µM): 109% | viability, T/C (second compound 0.316 µM, first compound 3 µM): 112% | viability, T/C [9]: 83.9% | viability, T/C [10]: 118% | viability, T/C [11]: 117% | viability, T/C [12]: 109% | viability, T/C (second compound 1 µM, first compound 0.949 µM): 94% | viability, T/C (second compound 1 µM, first compound 3 µM): 108% | viability, T/C [13]: 102% | viability, T/C [14]: 102% | viability, T/C [15]: 124% | viability, T/C [16]: 86.3% | viability, T/C (second compound 3.16 µM, first compound 0.949 µM): 110% | viability, T/C (second compound 3.16 µM, first compound 3 µM): 93.8% | viability, T/C [17]: 12.1% | viability, T/C [18]: 15.5% | viability, T/C [19]: 15.5% | viability, T/C [20]: 17.9% | viability, T/C (second compound 10 µM, first compound 0.949 µM): 8.72% | viability, T/C (second compound 10 µM, first compound 3 µM): 7.72%
